The test system of this assay is BDF1 mice, L1210 terephthalanilide-resistant leukemia ip, survival T/C. As to the kind of experiment: NCI In Vivo Anticancer Drug Screen. Data for tumor model L1210 Leukemia resistant to A Terephthalanilide; NSC 38280 (intraperitoneal) in B6D2F1 (BDF1) mice. Conditions: endpoint: mean survival time, higher = longer survival. The protocol:
The antitumor activity of compounds was measured in mice bearing transplantable tumors. Survival or tumor size were measured and the results are expressed as the measurement made in the treated group (T) divided by the measurement made in the vehicle treated control group (C). The tumor model used in this assay is L1210 Leukemia resistant to A Terephthalanilide; NSC 38280 (intraperitoneal) in B6D2F1 (BDF1) mice

Setting [1] is: dose: 4.0 mg/kg/injection, schedule: Q01DX010 (ip), vehicle: saline.
Setting [2] is: dose: 8.0 mg/kg/injection, schedule: Q01DX010 (ip), vehicle: saline.
The mark [3] stands for this setting: dose: 16.0 mg/kg/injection, schedule: Q01DX010 (ip), vehicle: saline.
[4] abbreviates: dose: 20.0 mg/kg/injection, schedule: Q01DX010 (ip), vehicle: saline.
[5] abbreviates: dose: 5.0 mg/kg/injection, schedule: Q01DX Z (ip), vehicle: carboxymethylcellulose (CMC).
The mark [6] stands for this setting: dose: 25.0 mg/kg/injection, schedule: Q01DX Z (ip), vehicle: carboxymethylcellulose (CMC).
The mark [7] stands for this setting: dose: 1.25 mg/kg/injection, schedule: Q01DX010 (ip), vehicle: saline.
Where [8] appears, read: dose: 5.0 mg/kg/injection, schedule: Q01DX010 (ip), vehicle: saline.
Setting [9] is: dose: 31.3 mg/kg/injection, schedule: Q01DX010 (ip), vehicle: saline.
The mark [10] stands for this setting: dose: 62.5 mg/kg/injection, schedule: Q01DX010 (ip), vehicle: saline.
Where [11] appears, read: dose: 125.0 mg/kg/injection, schedule: Q01DX010 (ip), vehicle: saline.
The mark [12] stands for this setting: dose: 2.5 mg/kg/injection, schedule: Q01DX010 (ip), vehicle: saline.
Where [13] appears, read: dose: 10.0 mg/kg/injection, schedule: Q01DX010 (ip), vehicle: saline.

This is an account of results in PubChem BioAssay AID282 (DTP/NCI, 2004).

Structures are written as SMILES. “And” between values parts separate entries of the source, which are not always exact repeats. Equal values may be shown once. Toxic doses and inconclusive results are not listed.

With `CSc1ncnc2c1ncn2C1OC(CO)C(O)C1O` (stereo not drawn), the T/C by setting is: under setting [1], 105 % of control; (dose: 5.5 mg/kg/injection, schedule: Q01DX Z (ip), vehicle: saline) 117 % of control; under setting [2], 116 % of control; (dose: 15.0 mg/kg/injection, schedule: Q01DX010 (ip), vehicle: saline) 151 % of control; under setting [3], 122 % of control; under setting [4], 162 % of control. The T/C is, setting by setting: (dose: 37.5 mg/kg/injection, schedule: Q01DX Z (ip), vehicle: saline) 154 % of control; (dose: 50.0 mg/kg/injection, schedule: Q01DX Z (ip), vehicle: saline) 101 % of control; (dose: 75.0 mg/kg/injection, schedule: Q01DX Z (ip), vehicle: saline) 88 % of control.

Turning to `CC(CCC(C)OS(C)(=O)=O)OS(C)(=O)=O` (stereo not drawn), the T/C is 102 % of control (dose: 2.0 mg/kg/injection, schedule: Q01DX010 (ip), vehicle: saline); 94 % of control (dose: 2.5 mg/kg/injection, schedule: Q01DX Z (ip), vehicle: carboxymethylcellulose (CMC)); 95 % of control and 100 % of control under setting [1]; 97 % of control under setting [5]; 103 % of control (dose: 7.5 mg/kg/injection, schedule: Q01DX Z (ip), vehicle: carboxymethylcellulose (CMC)); 100 % of control under setting [2]. In addition, the T/C is, setting by setting: (dose: 10.0 mg/kg/injection, schedule: Q01DX Z (ip), vehicle: carboxymethylcellulose (CMC)) 111 % of control; (dose: 12.5 mg/kg/injection, schedule: Q01DX Z (ip), vehicle: carboxymethylcellulose (CMC)) 109 % of control; under setting [3], 100 % of control and 112 % of control; under setting [6], 88 % of control; (dose: 32.0 mg/kg/injection, schedule: Q01DX010 (ip), vehicle: saline) 110 % of control.

Consider `N#[N+]c1cnc([O-])[nH]c1=O`, for which the T/C runs as follows: under setting [7], 110 % of control; (dose: 2.5 mg/kg/injection, schedule: Q01DX Z (ip), vehicle: alkali diluted with saline) 102 % of control; (dose: 5.0 mg/kg/injection, schedule: Q01DX Z (ip), vehicle: alkali diluted with saline) 102 % of control; (dose: 7.5 mg/kg/injection, schedule: Q01DX Z (ip), vehicle: alkali diluted with saline) 106 % of control; (dose: 10.0 mg/kg/injection, schedule: Q01DX Z (ip), vehicle: saline) 172 % of control; (dose: 15.0 mg/kg/injection, schedule: Q01DX Z (ip), vehicle: alkali diluted with saline) 108 % of control. Further, the T/C (dose: 20.0 mg/kg/injection, schedule: Q01DX Z (ip), vehicle: saline) was 96 % of control.

Consider `CS(=O)(=O)OCC(O)C(O)COS(C)(=O)=O` (stereo not drawn), for which the T/C by setting is: under setting [6], 107 % of control; (dose: 50.0 mg/kg/injection, schedule: Q01DX Z (ip), vehicle: carboxymethylcellulose (CMC)) 103 % of control; (dose: 100.0 mg/kg/injection, schedule: Q01DX Z (ip), vehicle: carboxymethylcellulose (CMC)) 103 % of control; (dose: 200.0 mg/kg/injection, schedule: Q01DX010 (ip), vehicle: saline) 101 % of control; (dose: 200.0 mg/kg/injection, schedule: Q01DX Z (ip), vehicle: carboxymethylcellulose (CMC)) 101 % of control; (dose: 250.0 mg/kg/injection, schedule: Q01DX Z (ip), vehicle: carboxymethylcellulose (CMC)) 100 % of control. Besides, the T/C was 111 % of control (dose: 375.0 mg/kg/injection, schedule: Q01DX Z (ip), vehicle: carboxymethylcellulose (CMC)); 97 % of control (dose: 400.0 mg/kg/injection, schedule: Q01DX010 (ip), vehicle: saline); 91 % of control (dose: 800.0 mg/kg/injection, schedule: Q01DX010 (ip), vehicle: saline).

In the case of `Oc1cc(CN(CCCl)CCCl)c(O)cc1CN(CCCl)CCCl`, the T/C is, setting by setting: (dose: 0.63 mg/kg/injection, schedule: Q01DX010 (ip), vehicle: saline) 116 % of control and 120 % of control; (dose: 1.0 mg/kg/injection, schedule: Q01DX Z (ip), vehicle: carboxymethylcellulose (CMC)) 121 % of control; under setting [8], 108 % of control and 113 % of control; (dose: 6.0 mg/kg/injection, schedule: Q01DX Z (ip), vehicle: carboxymethylcellulose (CMC)) 150 % of control.

As for `C[C@H](N)C(=O)N[C@@H]1[C@H]2C(=C(O)C[C@@H](O)[C@@H]2O)C(=O)O[C@@H]1C`, the T/C was 156 % of control (dose: 375.0 mg/kg/injection, schedule: Q01DX Z (ip), vehicle: saline); 170 % of control (dose: 500.0 mg/kg/injection, schedule: Q01DX Z (ip), vehicle: saline); 202 % of control (dose: 750.0 mg/kg/injection, schedule: Q01DX Z (ip), vehicle: saline).

As for `O=C1CCC(N2C(=O)c3ccccc3C2=O)C(=O)N1` (stereo not drawn), the T/C under setting [9] is 94 % of control; the T/C under setting [10] is 96 % of control; the T/C under setting [11] was 94 % of control; the T/C (dose: 250.0 mg/kg/injection, schedule: Q01DX010 (ip), vehicle: saline) was 100 % of control.

Regarding `O=C(Nc1ccc(C2=NCCN2)cc1)c1ccc(C(=O)Nc2ccc(C3=NCCN3)cc2)c(Cl)c1`, the T/C (dose: 2.0 mg/kg/injection, schedule: Q01DX010 (ip), vehicle: other) was 98 % of control and 100 % of control; the T/C (dose: 4.0 mg/kg/injection, schedule: Q01DX010 (ip), vehicle: other) was 107 % of control and 110 % of control; the T/C (dose: 8.0 mg/kg/injection, schedule: Q01DX010 (ip), vehicle: other) is 107 % of control and 117 % of control; the T/C (dose: 16.0 mg/kg/injection, schedule: Q01DX010 (ip), vehicle: other) was 122 % of control and 107 % of control; the T/C (dose: 32.0 mg/kg/injection, schedule: Q01DX010 (ip), vehicle: other) was 120 % of control and 112 % of control.

Take `CCCSc1ncnc2nc[nH]c12`: the T/C reads like this: under setting [9], 95 % of control and 99 % of control; (dose: 44.0 mg/kg/injection, schedule: Q01DX Z (ip), vehicle: other) 96 % of control; under setting [10], 106 % of control and 111 % of control; (dose: 87.5 mg/kg/injection, schedule: Q01DX Z (ip), vehicle: other) 121 % of control; under setting [11], 100 % of control and 111 % of control.

As for `O=C(Nc1ccc(C2=NCCN2)cc1)Nc1cccc(NC(=O)Nc2ccc(C3=NCCN3)cc2)c1`, the T/C was 96 % of control and 110 % of control (dose: 60.0 mg/kg/injection, schedule: Q01DX010 (ip), vehicle: saline); 92 % of control and 116 % of control (dose: 120.0 mg/kg/injection, schedule: Q01DX010 (ip), vehicle: saline); 96 % of control and 100 % of control (dose: 240.0 mg/kg/injection, schedule: Q01DX010 (ip), vehicle: saline); 86 % of control and 87 % of control (dose: 480.0 mg/kg/injection, schedule: Q01DX010 (ip), vehicle: saline).

As to `CC[n+]1c(-c2ccccc2)c2cc(N)ccc2c2ccc(N)cc21`, the T/C runs as follows: under setting [7], 100 % of control; under setting [12], 90 % of control; under setting [8], 101 % of control; under setting [13], 95 % of control.

As to `C[C@@H]1C[C@H]2CC[C@H](O2)[C@H](C)C(=O)O[C@@H](C)C[C@@H]2CC[C@@H](O2)[C@@H](C)C(=O)O[C@H](C)C[C@H]2CC[C@H](O2)[C@H](C)C(=O)O[C@@H](C)C[C@@H]2CC[C@@H](O2)[C@@H](C)C(=O)O1`, the T/C is, setting by setting: (dose: 45.0 mg/kg/injection, schedule: Q01DX Z (ip), vehicle: carboxymethylcellulose (CMC)) 92 % of control; (dose: 90.0 mg/kg/injection, schedule: Q01DX Z (ip), vehicle: carboxymethylcellulose (CMC)) 95 % of control; (dose: 180.0 mg/kg/injection, schedule: Q01DX Z (ip), vehicle: carboxymethylcellulose (CMC)) 104 % of control; (dose: 360.0 mg/kg/injection, schedule: Q01DX Z (ip), vehicle: carboxymethylcellulose (CMC)) 108 % of control.

`S=P(N1CCOCC1)(N1CC1)N1CC1`: the T/C (dose: 1.87 mg/kg/injection, schedule: Q01DX Z (ip), vehicle: carboxymethylcellulose (CMC)) is 98 % of control and 111 % of control; the T/C under setting [12] was 92 % of control and 101 % of control; the T/C (dose: 3.75 mg/kg/injection, schedule: Q01DX Z (ip), vehicle: carboxymethylcellulose (CMC)) is 107 % of control and 115 % of control; the T/C under setting [8] was 97 % of control and 102 % of control; the T/C under setting [5] was 98 % of control and 114 % of control; the T/C under setting [13] is 99 % of control and 100 % of control. The T/C by setting is: under setting [4], 101 % of control; (dose: 20.0 mg/kg/injection, schedule: Q01DX Z (ip), vehicle: carboxymethylcellulose (CMC)) 159 % of control; (dose: 40.0 mg/kg/injection, schedule: Q01DX Z (ip), vehicle: carboxymethylcellulose (CMC)) 104 % of control.
